Laboratory results reported in patent US20260250636A1, “A METHOD FOR PRODUCING A BIOENGINEERED MAMMAL INDUCED PLURIPOTENT STEM CELL-DERIVED CARDIAC ORGANOID” (INSTITUT NATIONAL DE LA SANTÉ ET DE LA RECHERCHE MÉDICALE, priority 2022, published 2026).

Tests used:
Type in all cases: cell-based, human
c-met cardiac organoids [1] = assay: OCR/ECAR and energy phenotype (Seahorse XFp) under cobalt chloride-mimicked hypoxia
Protocol: Cardiac organoids cultured for 3-4 months in 96 wells were transferred randomly to XFp mini plates (1-6 organoids/well, 300 to 1100 μm in diameter) (Seahorse, Agilent). The cardiac culture medium was treated with 200 μM CoCl2 (sigma) concentration for 24 hours. To evaluate the effects of HGF stimulation and c-met inhibition we have used respectively HGF at 50 ng/ml (R&D Systems) and SU11274 at […] (Sigma) under hypoxia. OCR, ECAR and energy phenotype test were all measured using a Seahorse XFp analyzer (Seahorse, Agilent). On the day of testing, cells were incubated in XF assay medium for 1 hr at 37° C. in non-CO2 incubator before measurement. Cell energy phenotype kit was used with port A containing the FCCP/oligomycin stressor mix at 2.0/1.0 μM (final well concentration). OCR and ECAR were normalized to the cell numbers of each wells. Cells were stained with DAPI and calculated from Leica confocal microscope images.

[2] = system: control cardiac organoids; assay: Cobalt chloride-mimicked hypoxia, proBNP and caspase-3 immunostaining; conditions: 200 μM CoCl2 hypoxia 24 h, n=5, normalized by DAPI fluorescence intensity
Protocol: (§1) Cardiac organoids cultured on 24 or 96-well culture plates were washed with phosphate-buffered saline (PBS), fixed with 4% paraformaldehyde in PBS for 60 min, permeabilized with 0.2% Triton X-100 (Sigma) in PBS and blocked 10% serum. Primary antibodies were diluted in PBS 10% serum at the following concentrations: phospho-Met; 1:100 (Cell Signaling Technologies), phospho-STAT3; 1:200 (Cell Signaling Technologies), Sarcomeric Alpha Actinin; 1:200 (Abcam), MLC-2A; 1:100 (Synaptic Systems), MLC-2V; 1:100 (Synaptic Systems), Cardiac troponin T; 1:100 (Abcam), CD31; 1:100 (Abcam), Caspase-3; 1:100 (Cell Signaling Technologies), ProBNP; 1:100 (Abcam), and then washed three times in PBS. The samples were incubated with secondary antibodies in antibody dilution buffer, then washed in PBS. Nuclei were labeled with DAPI mounting medium. The negative control performed a secondary antibody only (data not shown). Visualization and capture were realized with a Leica confocal microscope and LAS AF software.
(§2) Cardiac organoids cultured for 3-4 months in 96 wells were transferred randomly to XFp mini plates (1-6 organoids/well, 300 to 1100 μm in diameter) (Seahorse, Agilent). The cardiac culture medium was treated with 200 μM CoCl2 (sigma) concentration for 24 hours. To evaluate the effects of HGF stimulation and c-met inhibition we have used respectively HGF at 50 ng/ml (R&D Systems) and SU11274 at 5 M (Sigma) under hypoxia.

c-met cardiac organoids [3] = assay: as above; conditions: 200 μM CoCl2 hypoxia 24 h, n=8, normalized by DAPI fluorescence intensity
Protocol: as §1, §2

[4] = system: control cardiac organoids; assay: OCR/ECAR and energy phenotype (Seahorse XFp) under cobalt chloride-mimicked hypoxia; conditions: after CoCl2 hypoxia 24 h; control group as compared to c-met group
Protocol: as §2
OCR, ECAR and energy phenotype test were all measured using a Seahorse XFp analyzer (Seahorse, Agilent). On the day of testing, cells were incubated in XF assay medium for 1 hr at 37° C. in non-CO2 incubator before measurement. Cell energy phenotype kit was used with port A containing the FCCP/oligomycin stressor mix at 2.0/1.0 μM (final well concentration). OCR and ECAR were normalized to the cell numbers of each wells. Cells were stained with DAPI and calculated from Leica confocal microscope images.

Structure (SMILES) | glycolysis activity at the baseline (ECAR) (c-met cardiac organoids [1]; c-met organoids, CoCl2 + SU11274 24 h, compared with HGF-treated (50 ng/ml) control organoids) | caspase-3+ cells intensity [2] | proBNP+ cells intensity [2] | caspase-3+ cells intensity (c-met cardiac organoids [3]) | proBNP+ cells intensity (c-met cardiac organoids [3]) | energy phenotype (OCR versus ECAR) (c-met cardiac organoids [1]; after CoCl2 hypoxia 24 h, c-met organoids versus control) | glycolysis activity (ECAR) [4]
Cc1[nH]c(/C=C2\C(=O)Nc3ccc(S(=O)(=O)N(C)c4cccc(Cl)c4)cc32)c(C)c1C(=O)N1CCN(C)CC1 [SU11274] | significantly decreased | – | – | – | – | – | –
[Cl][Co][Cl] [cobalt, cobalt chloride] | – | 0.61±0.11 | 0.78±0.16 | 0.34±0.16 | 0.73±1.4 | more energetic than control | decreased
